Measured values taken from patent publication US20220323406A1, “METHODS AND COMPOSITIONS FOR DIFFERENTIATING STEM CELLS” (Massachusetts Institute of Technology, priority 2019, published 2022).

Tests used:
Conditions in all cases: primary screen
[1] = system: ENR+CD organoids (ISC to Paneth cell differentiation); assay: Primary screen: CCh-stimulated lysozyme secretion LYZ.S, 2.5-D 384-well ENR+CD organoid differentiation; format: cell-based, mouse
Excerpt: (§1) High-throughput screening.

ENR+CD organoids = assay: Primary screen: ATP (CellTiter-Glo 3D, CTG) cell number/viability, 2.5-D 384-well ENR+CD organoids;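 also: compounds given at plating and again on day 3 over a 6-day differentiation from ENR+CV stem-cell-enriched precursors, ATP measured on day 6, plate median as control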
[2] = system: ENR+CD organoids (ISC to Paneth cell differentiation); assay: Primary screen: basal (non-stimulated) lysozyme secretion LYZ.NS, 2.5-D 384-well ENR+CD organoid differentiation; format: cell-based, mouse
Excerpt: as §1

[3] = 1st dose row of the treatment (0.08 uM by row order; dose not reprinted)
[4] = 2nd dose row of the treatment (0.40 uM by row order; dose not reprinted)
[5] = 3rd dose row of the treatment (2.00 uM by row order; dose not reprinted)
[6] = 4th dose row of the treatment (10.00 uM by row order; dose not reprinted)

Row | Compound | Dose.FC.LYZ.S ([1]; dose 0.08 uM) | Dose.FC.LYZ.S ([1]; dose 0.40 uM) | Dose.FC.LYZ.S ([1]; dose 2.00 uM) | Dose.FC.LYZ.S ([1]; dose 10.00 uM) | Dose.FC.CTG (ENR+CD organoids; dose 0.08 uM) | Z.CTG (standard z score) (ENR+CD organoids; dose 0.08 uM) | Dose.FC.CTG (ENR+CD organoids; dose 0.40 uM) | Z.CTG (standard z score) (ENR+CD organoids; dose 0.40 uM) | Dose.FC.CTG (ENR+CD organoids; dose 2.00 uM) | Z.CTG (standard z score) (ENR+CD organoids; dose 2.00 uM) | Dose.FC.CTG (ENR+CD organoids; dose 10.00 uM) | Z.CTG (standard z score) (ENR+CD organoids; dose 10.00 uM) | Dose.FC.LYZ.NS ([2]; dose 0.08 uM) | Z.LYZ.NS (standard z score) ([2]; dose 0.08 uM) | Dose.FC.LYZ.NS ([2]; dose 0.40 uM) | Z.LYZ.NS (standard z score) ([2]; dose 0.40 uM) | Dose.FC.LYZ.NS ([2]; dose 2.00 uM) | Z.LYZ.NS (standard z score) ([2]; dose 2.00 uM) | Dose.FC.LYZ.NS ([2]; dose 10.00 uM) | Z.LYZ.NS (standard z score) ([2]; dose 10.00 uM) | also measured
1 | COCC[n+]1c2c(n(Cc3cnccn3)c1C)C(=O)c1ccccc1C2=O.[Br-] [YM155 (Sepantronium Bromide)] | 0.172 log2 fold change | −0.039 log2 fold change | −0.137 log2 fold change | −0.210 log2 fold change | 0.222 log2 fold change | 0.531 | −0.083 log2 fold change | −0.198 | −0.460 log2 fold change | −1.100 | −0.970 log2 fold change | −2.316 | 0.114 log2 fold change | 0.995 | −0.031 log2 fold change | −0.266 | −0.082 log2 fold change | −0.714 | −0.096 log2 fold change | −0.839 | –
2 | C[C@H](NC(=O)Cc1cc(F)cc(F)c1)C(=O)N[C@@H]1C(=O)N(C)c2ccccc2-c2ccccc21 [YO-01027] | 0.105 log2 fold change | −0.058 log2 fold change | −0.020 log2 fold change | −0.184 log2 fold change | 0.221 log2 fold change | 0.528 | −0.475 log2 fold change | −1.135 | −0.571 log2 fold change | −1.363 | −1.032 log2 fold change | −2.464 | 0.051 log2 fold change | 0.443 | 0.085 log2 fold change | 0.739 | −0.080 log2 fold change | −0.699 | −0.157 log2 fold change | −1.369 | –
3 | Cc1cc(C)nc(NS(=O)(=O)c2ccc(NC(=S)NC(=O)COc3ccc(Br)cc3Cl)cc2)n1 [ZCL278] | −0.107 log2 fold change | 0.077 log2 fold change | −0.079 log2 fold change | −0.080 log2 fold change | −0.964 log2 fold change | −2.303 | 0.018 log2 fold change | 0.044 | −0.228 log2 fold change | −0.545 | −0.104 log2 fold change | −0.247 | −0.084 log2 fold change | −0.729 | −0.037 log2 fold change | −0.325 | 0.025 log2 fold change | 0.218 | 0.015 log2 fold change | 0.130 | –
4 | COc1cc2ncnc(Nc3ccc(Cl)cc3F)c2cc1OC [ZM 306416] | 0.006 log2 fold change | −0.288 log2 fold change | −0.403 log2 fold change | −0.431 log2 fold change | −0.080 log2 fold change | −0.190 | −0.483 log2 fold change | −1.155 | −1.312 log2 fold change | −3.135 | −1.490 log2 fold change | −3.559 | 0.105 log2 fold change | 0.912 | −0.223 log2 fold change | −1.942 | −0.291 log2 fold change | −2.531 | −0.275 log2 fold change | −2.395 | –
5 | COc1cc2c(Nc3ccc(NC(=O)c4ccccc4)cc3)ncnc2cc1OCCCN1CCOCC1 [ZM 447439] | 0.171 log2 fold change | 0.108 log2 fold change | 0.074 log2 fold change | −0.132 log2 fold change | 0.512 log2 fold change | 1.222 | 0.304 log2 fold change | 0.725 | 0.231 log2 fold change | 0.552 | −0.240 log2 fold change | −0.574 | 0.103 log2 fold change | 0.896 | 0.107 log2 fold change | 0.932 | 0.052 log2 fold change | 0.456 | −0.080 log2 fold change | −0.695 | –
6 | O=c1ncccn1[C@@H]1O[C@H](CO)[C@@H](O)[C@H]1O [Zebularine] | 0.092 log2 fold change | 0.077 log2 fold change | 0.051 log2 fold change | 0.102 log2 fold change | 0.035 log2 fold change | – | 0.000 log2 fold change | – | −0.089 log2 fold change | – | −0.167 log2 fold change | – | 0.026 log2 fold change | 0.223 | 0.009 log2 fold change | 0.075 | 0.095 log2 fold change | 0.828 | 0.086 log2 fold change | 0.749 | –
7 | COc1nc(C)cnc1NS(=O)(=O)c1cccnc1-c1ccc(-c2nnco2)cc1 [Zibotentan (ZD4054)] | 0.168 log2 fold change | 0.130 log2 fold change | −0.038 log2 fold change | 0.050 log2 fold change | 0.104 log2 fold change | 0.249 | −0.009 log2 fold change | −0.022 | −0.768 log2 fold change | −1.834 | −0.001 log2 fold change | −0.003 | 0.094 log2 fold change | 0.820 | 0.054 log2 fold change | 0.474 | −0.003 log2 fold change | −0.029 | 0.101 log2 fold change | 0.877 | –
8 | Cl.Cl.Cl.O[C@@H](COc1cccc2ncccc12)CN1CCN([C@@H]2c3ccccc3[C@@H]3[C@H](c4ccccc42)C3(F)F)CC1 [Zosuquidar (LY335979) 3HCl] | 0.124 log2 fold change | 0.127 log2 fold change | 0.129 log2 fold change | −0.200 log2 fold change | 0.017 log2 fold change | 0.041 | 0.197 log2 fold change | 0.470 | 0.276 log2 fold change | 0.659 | −0.193 log2 fold change | −0.461 | 0.096 log2 fold change | 0.839 | 0.080 log2 fold change | 0.696 | 0.207 log2 fold change | 1.802 | −0.209 log2 fold change | −1.821 | –
9 | (−)-MK 801 Maleate | 0.015 log2 fold change | −0.179 log2 fold change | −0.334 log2 fold change | −0.403 log2 fold change | 0.127 log2 fold change | 0.303 | −0.377 log2 fold change | −0.899 | −0.702 log2 fold change | −1.677 | −0.936 log2 fold change | −2.236 | 0.008 log2 fold change | 0.072 | −0.099 log2 fold change | −0.864 | −0.256 log2 fold change | −2.227 | −0.259 log2 fold change | −2.255 | SSMD.LYZ.S_Rep (strictly standardized mean difference) [1, 3]: 0.116; Z.LYZ.S (standard z score) [1, 3]: 0.099; SSMD.LYZ.S_Rep (strictly standardized mean difference) [1, 4]: −0.976; Z.LYZ.S (standard z score) [1, 4]: −1.159; SSMD.LYZ.S_Rep (strictly standardized mean difference) [1, 5]: −1.187; Z.LYZ.S (standard z score) [1, 5]: −2.160; SSMD.LYZ.S_Rep (strictly standardized mean difference) [1, 6]: −1.768; Z.LYZ.S (standard z score) [1, 6]: −2.604; SSMD.CTG.Rep (strictly standardized mean difference) (ENR+CD organoids; [3]): 0.442; SSMD.CTG.Rep (strictly standardized mean difference) (ENR+CD organoids; [4]): −1.342; SSMD.CTG.Rep (strictly standardized mean difference) (ENR+CD organoids; [5]): −1.102; SSMD.CTG.Rep (strictly standardized mean difference) (ENR+CD organoids; [6]): −1.696; SSMD.LYZ.NS_Rep (strictly standardized mean difference) [2, 3]: 0.070; SSMD.LYZ.NS_Rep (strictly standardized mean difference) [2, 4]: −0.550; SSMD.LYZ.NS_Rep (strictly standardized mean difference) [2, 5]: −1.315; SSMD.LYZ.NS_Rep (strictly standardized mean difference) [2, 6]: −1.708
